Experimental data taken from patent publication US20060269950A1, “Method of identifying compounds that modulate interaction of androgen receptor with beta-catenin” (Wyeth, priority 2005, published 2006).

Key:
[1] = system: estrogen receptor (ER) interaction with β-catenin; assay: One-hybrid GAL4-β-catenin luciferase reporter assay in CV-1 cells with ER expression plasmid; type: cell-based; details: 10 nM, 18 hours
Procedure: (§1) CV-1 cells were cultured on 96 well plates and transfected after 24 hours with the expression and reporter plasmids using the lipofectamine procedure (Invitrogen). In this procedure, the three different plasmid constructs used were mixed in cell culture media and lipofectamine and incubated for 15 minutes according to the manufacturer's instructions (Invitrogen). The plasmid-lipofectamine mixture was diluted in culture medium, added to cells, and incubated for 4 hours. The cells were rinsed and then treated with culture media. Twenty-four hours after transfection, the cells were treated with androgen agonists and antagonists or vehicle. After 18 hours, cell lysates were harvested and assayed for luciferase activity using luciferase reagent (Promega) and a luminometer (Wallac). Other known transfection techniques can be used including, for example, calcium phosphate precipitation transfection technique.
(§2) CV-1 cells were transfected with the 5XGAL4-luciferase reporter and the GAL4-O-catenin expression plasmid in the absence of a nuclear receptor expression vector (−), with the AR, PR, or ER expression plasmid. […] Cell lysates were harvested and analyzed for luciferase activity.

[2] = biological target: T1, progesterone receptor (PR) interaction with β-catenin (Homo sapiens, UniProt P06401); assay: One-hybrid GAL4-β-catenin luciferase reporter assay in CV-1 cells with PR expression plasmid; type: cell-based; details: 10 nM, 18 hours
T1 construct: expressed in transfected cells; host or cells: CV-1 cells
T1 sequence (P06401 1-933): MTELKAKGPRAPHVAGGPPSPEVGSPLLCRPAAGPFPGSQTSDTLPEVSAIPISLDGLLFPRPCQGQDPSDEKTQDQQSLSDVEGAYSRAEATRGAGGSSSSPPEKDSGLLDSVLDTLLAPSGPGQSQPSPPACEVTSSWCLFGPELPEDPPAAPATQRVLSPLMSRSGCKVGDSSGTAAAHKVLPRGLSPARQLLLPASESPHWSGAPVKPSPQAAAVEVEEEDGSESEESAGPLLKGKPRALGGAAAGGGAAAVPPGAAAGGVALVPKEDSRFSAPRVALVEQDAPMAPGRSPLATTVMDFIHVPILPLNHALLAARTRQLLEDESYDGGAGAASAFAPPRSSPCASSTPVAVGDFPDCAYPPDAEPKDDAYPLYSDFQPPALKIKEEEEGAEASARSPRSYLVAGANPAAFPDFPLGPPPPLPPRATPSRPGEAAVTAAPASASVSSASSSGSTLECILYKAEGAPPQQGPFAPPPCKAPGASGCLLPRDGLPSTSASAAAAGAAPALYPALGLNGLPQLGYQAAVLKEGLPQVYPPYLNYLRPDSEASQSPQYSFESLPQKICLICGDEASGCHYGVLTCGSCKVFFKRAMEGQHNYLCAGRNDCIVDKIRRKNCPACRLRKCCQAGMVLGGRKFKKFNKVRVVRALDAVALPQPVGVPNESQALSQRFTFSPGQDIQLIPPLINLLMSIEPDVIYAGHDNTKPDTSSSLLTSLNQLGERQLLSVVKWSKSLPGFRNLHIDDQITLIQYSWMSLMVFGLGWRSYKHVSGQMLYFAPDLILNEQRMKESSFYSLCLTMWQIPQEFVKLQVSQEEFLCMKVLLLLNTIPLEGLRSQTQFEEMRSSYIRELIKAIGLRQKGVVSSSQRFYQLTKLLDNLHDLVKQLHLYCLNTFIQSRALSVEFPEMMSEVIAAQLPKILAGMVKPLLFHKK
Procedure: as §1, §2

[3] = biological target: T2, interaction between AR and β-catenin (Mus musculus, UniProt P19091); assay: Co-immunoprecipitation of β-catenin followed by Western analysis for AR in L929 cells; details: 300 nM (30-fold excess) in presence of 10 nM DHT, 17 hours
T2 sequence (P19091 1-899): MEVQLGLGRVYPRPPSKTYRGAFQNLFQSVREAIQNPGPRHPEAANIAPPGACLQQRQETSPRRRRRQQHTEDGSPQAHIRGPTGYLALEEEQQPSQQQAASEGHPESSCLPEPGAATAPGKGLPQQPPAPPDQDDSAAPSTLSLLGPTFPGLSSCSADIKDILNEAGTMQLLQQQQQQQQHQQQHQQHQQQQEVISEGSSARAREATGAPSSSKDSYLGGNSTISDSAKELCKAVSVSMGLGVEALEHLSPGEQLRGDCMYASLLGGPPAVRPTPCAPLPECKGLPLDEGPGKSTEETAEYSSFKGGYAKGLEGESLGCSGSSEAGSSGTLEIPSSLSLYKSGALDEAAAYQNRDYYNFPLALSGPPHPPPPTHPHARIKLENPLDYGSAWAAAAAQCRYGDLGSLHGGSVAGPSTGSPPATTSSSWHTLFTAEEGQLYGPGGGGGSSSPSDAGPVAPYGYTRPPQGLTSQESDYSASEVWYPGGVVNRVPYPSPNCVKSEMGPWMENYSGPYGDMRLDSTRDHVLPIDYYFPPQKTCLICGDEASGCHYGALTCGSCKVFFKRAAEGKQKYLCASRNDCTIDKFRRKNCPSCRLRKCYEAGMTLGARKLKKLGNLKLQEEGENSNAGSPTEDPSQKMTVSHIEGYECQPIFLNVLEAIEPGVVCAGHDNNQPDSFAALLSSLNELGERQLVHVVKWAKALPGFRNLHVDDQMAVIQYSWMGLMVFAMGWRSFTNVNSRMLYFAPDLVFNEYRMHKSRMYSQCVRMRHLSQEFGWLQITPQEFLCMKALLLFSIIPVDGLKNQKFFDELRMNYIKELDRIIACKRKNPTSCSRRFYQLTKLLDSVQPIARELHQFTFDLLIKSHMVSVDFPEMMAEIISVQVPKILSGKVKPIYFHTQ
Procedure: Cell lysates were harvested, precleared with protein A/G sepharose, and β-catenin was immunoprecipitated using a goat polyclonal IgG against β-catenin conjugated to agarose (Santa Cruz Biotechnology). The immunoprecipitates were analyzed by polyacrylamide gel electrophoresis followed by Western analysis for AR and β-catenin (β-cat) as indicated using antibodies from Santa Cruz (FIG. 2).

[4] = biological target: T3, interaction between AR and β-catenin (Homo sapiens, UniProt P10275); assay: One-hybrid GAL4-β-catenin/AR luciferase reporter assay in CV-1 cells; type: cell-based, African green monkey; details: AR expressing CV-1 cells, 10 nM, 18 hours
T3 construct: The AR expression vector is human full length AR cDNA in pcDNA3; expressed in transfected cells; host or cells: CV-1 cells
T3 sequence (P10275 1-920): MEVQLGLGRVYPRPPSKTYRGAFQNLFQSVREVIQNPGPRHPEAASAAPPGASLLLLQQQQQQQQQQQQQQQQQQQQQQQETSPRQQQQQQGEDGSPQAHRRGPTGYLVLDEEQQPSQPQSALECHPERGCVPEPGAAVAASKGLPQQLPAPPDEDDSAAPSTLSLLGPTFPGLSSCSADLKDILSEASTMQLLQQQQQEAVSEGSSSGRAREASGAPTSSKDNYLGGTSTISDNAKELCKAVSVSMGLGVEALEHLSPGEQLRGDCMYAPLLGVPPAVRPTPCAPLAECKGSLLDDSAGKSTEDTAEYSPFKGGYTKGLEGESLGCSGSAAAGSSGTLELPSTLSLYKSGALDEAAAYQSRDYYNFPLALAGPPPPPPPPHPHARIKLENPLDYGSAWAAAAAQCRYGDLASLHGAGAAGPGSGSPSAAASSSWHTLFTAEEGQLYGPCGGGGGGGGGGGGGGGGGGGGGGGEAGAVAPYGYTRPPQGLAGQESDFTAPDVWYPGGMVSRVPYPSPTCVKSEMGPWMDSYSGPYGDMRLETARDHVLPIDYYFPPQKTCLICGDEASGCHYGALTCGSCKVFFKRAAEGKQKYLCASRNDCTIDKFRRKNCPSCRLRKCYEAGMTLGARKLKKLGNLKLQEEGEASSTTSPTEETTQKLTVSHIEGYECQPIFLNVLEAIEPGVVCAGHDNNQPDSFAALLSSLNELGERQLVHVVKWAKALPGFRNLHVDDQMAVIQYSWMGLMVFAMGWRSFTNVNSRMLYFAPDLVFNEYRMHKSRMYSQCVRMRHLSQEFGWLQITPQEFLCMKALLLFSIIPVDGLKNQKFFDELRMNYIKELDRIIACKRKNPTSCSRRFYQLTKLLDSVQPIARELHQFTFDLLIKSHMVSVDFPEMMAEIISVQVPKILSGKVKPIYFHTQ
Procedure: as §1
(§3) Cell lysates were harvested and analyzed for luciferase activity.
as §2, §3

| SMILES | activity in the one-hybrid assay (reporter activity) [1] | activity in the one-hybrid assay (reporter activity) [2] | effect on DHT-stimulated AR/β-catenin protein-protein interaction [3] | reporter (luciferase) activity [4] |
| --- | --- | --- | --- | --- |
| C[C@]12CC[C@@H]3c4ccc(O)cc4CC[C@H]3[C@@H]1CC[C@@H]2O [17β-estradiol] | no activity | no activity |  |  |
| C[C@]12CCC(=O)C[C@@H]1CC[C@@H]1[C@@H]2CC[C@]2(C)[C@@H](O)CC[C@@H]12 [DHT, dihydrotestosterone] | no activity | no activity |  |  |
| CC(C)(O)C(=O)Nc1ccc([N+](=O)[O-])c(C(F)(F)F)c1 [hydroxyflutamide] |  |  | attenuated |  |
| C[C@H](O)C(=O)[C@@]1(C)CC[C@H]2[C@@H]3CCC4=CC(=O)CCC4=C3CC[C@@]21C [trimegestone] | no activity | no activity |  | not |
